According to US11479551B2, “MTA-cooperative PRMT5 inhibitors” (Mirati Therapeutics, Inc., priority 2019, dated 2022):
Like-named read-outs stand apart in the source and are kept apart here.

Molecular target: PRMT5/MEP50 complex (Homo sapiens (Human), UniProt O14744)
Test: PRMT5:MEP50 FlashPlate Assay (histone H4 peptide substrate, plus and minus MTA)
Type: biochemical
Experimental: The PRMT5 inhibitory activity of compounds of the present invention was determined using either a PRMT5:MEP50 FlashPlate Assay (Reaction Biology Corporation) or a PRMT5:MEP50 HotSpot Assay (Reaction Biology Corporation).
1. PRMT5:MEP50 FlashPlate Assay

[1] = IC50 + 2 μM MTA (nM), in the presence of 2 μM MTA
[2] = in the absence of MTA, read-out: IC50

PRMT5/MEP50 complex, sequence (O14744 2-637): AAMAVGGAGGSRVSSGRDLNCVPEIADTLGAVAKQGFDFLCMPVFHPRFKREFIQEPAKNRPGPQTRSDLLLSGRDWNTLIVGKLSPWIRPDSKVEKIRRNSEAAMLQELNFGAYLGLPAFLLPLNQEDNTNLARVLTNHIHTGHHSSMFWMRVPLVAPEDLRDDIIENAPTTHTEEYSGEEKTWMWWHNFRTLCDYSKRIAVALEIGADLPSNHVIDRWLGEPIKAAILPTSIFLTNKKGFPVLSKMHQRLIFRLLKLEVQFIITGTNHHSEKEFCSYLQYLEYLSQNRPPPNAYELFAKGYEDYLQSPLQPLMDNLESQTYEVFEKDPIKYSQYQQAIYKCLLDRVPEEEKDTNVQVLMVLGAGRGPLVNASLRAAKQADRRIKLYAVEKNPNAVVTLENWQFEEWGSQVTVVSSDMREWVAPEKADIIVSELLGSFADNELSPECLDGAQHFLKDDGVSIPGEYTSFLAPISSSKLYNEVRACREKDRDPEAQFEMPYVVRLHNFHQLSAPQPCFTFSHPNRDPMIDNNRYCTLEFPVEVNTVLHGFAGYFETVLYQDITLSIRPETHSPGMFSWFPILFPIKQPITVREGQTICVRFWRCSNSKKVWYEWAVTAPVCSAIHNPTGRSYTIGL
PRMT5/MEP50 complex, sequence (Q9BQA1 2-342 partner): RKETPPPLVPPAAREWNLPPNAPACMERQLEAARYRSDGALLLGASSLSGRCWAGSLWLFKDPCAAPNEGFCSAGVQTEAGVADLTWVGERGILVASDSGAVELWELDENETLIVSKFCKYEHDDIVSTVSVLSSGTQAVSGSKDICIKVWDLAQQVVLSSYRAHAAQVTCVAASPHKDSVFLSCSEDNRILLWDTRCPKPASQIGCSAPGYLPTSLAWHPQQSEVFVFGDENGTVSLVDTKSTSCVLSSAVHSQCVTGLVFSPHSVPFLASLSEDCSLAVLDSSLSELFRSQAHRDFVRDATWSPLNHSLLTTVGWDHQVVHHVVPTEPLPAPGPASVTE

SMILES	IC50 [1] [nM]	IC50 [2] [nM]
Cn1ncc(-c2ccc3c(=O)[nH]nc(CN)c3c2)c1Cl [Example 4-49, 4-(aminomethyl)-6-(5-chloro-1-methyl-pyrazol-4-yl)-2H-phthalazin-1-one]	300	5930
NCc1n[nH]c(=O)c2ccc(-c3cncc(Cc4ccccc4)c3)cc12 [Example 4-50, 4-(aminomethyl)-6-(5-benzylpyridin-3-yl)phthalazin-1(2H)-one]	22	456
NCc1n[nH]c(=O)c2ccc(-c3cncc(S(=O)(=O)c4ccccc4)c3)cc12 [Example 4-52, 4-(aminomethyl)-6-(5-(phenylsulfonyl)pyridin-3-yl)phthalazin-1(2H)-one]	18	669
CN(C)c1cncc(-c2ccc3c(=O)[nH]nc(CN)c3c2)c1 [Example 4-53, 4-(aminomethyl)-6-(5-(dimethylamino)pyridin-3-yl)phthalazin-1(2H)-one]	55	1140
NCc1n[nH]c(=O)c2ccc(-c3cnsc3-c3ccccc3)cc12 [Example 4-54, 4-(aminomethyl)-6-(5-phenylisothiazol-4-yl)phthalazin-1(2H)-one]	77	1550
NCc1n[nH]c(=O)c2ccc(-c3cncc(Sc4ccccc4)c3)cc12 [Example 4-55, 4-(aminomethyl)-6-(5-(phenylthio)pyridin-3-yl)phthalazin-1(2H)-one]	1.2	30
NCc1n[nH]c(=O)c2ccc(-c3cncc(Sc4cccc(Cl)c4)c3)cc12 [Example 4-56, 4-(aminomethyl)-6-(5-((3-chlorophenyl)thio)pyridin-3-yl)phthalazin-1(2H)-one]	3.8	107
NCc1n[nH]c(=O)c2ccc(-c3cncc(Sc4ccc(Cl)cc4)c3)cc12 [Example 4-57, 4-(aminomethyl)-6-(5-((4-chlorophenyl)thio)pyridin-3-yl)phthalazin-1(2H)-one]	11	85
NCc1n[nH]c(=O)c2ccc(-c3cncc(Sc4ccccc4Cl)c3)cc12 [Example 4-58, 4-(aminomethyl)-6-(5-((2-chlorophenyl)thio)pyridin-3-yl)phthalazin-1(2H)-one]	1.8	36
Cc1ccccc1Sc1cncc(-c2ccc3c(=O)[nH]nc(CN)c3c2)c1 [Example 4-59, 4-(aminomethyl)-6-(5-(o-tolylthio)pyridin-3-yl)phthalazin-1(2H)-one]	2.1	68
Cc1ccc(Sc2cncc(-c3ccc4c(=O)[nH]nc(CN)c4c3)c2)cc1 [Example 4-60, 4-(aminomethyl)-6-(5-(p-tolylthio)pyridin-3-yl)phthalazin-1(2H)-one]	2.3	117
Cc1cccc(Sc2cncc(-c3ccc4c(=O)[nH]nc(CN)c4c3)c2)c1 [Example 4-61, 4-(aminomethyl)-6-(5-(m-tolylthio)pyridin-3-yl)phthalazin-1(2H)-one]	3	149
NCc1n[nH]c(=O)c2ccc(-c3cncc(Oc4cccnc4)c3)cc12 [Example 4-62, 4-(aminomethyl)-6-(5-(pyridin-3-yloxy)pyridin-3-yl)phthalazin-1(2H)-one]	120	2230
NCc1n[nH]c(=O)c2ccc(-c3cncc(Oc4ccccn4)c3)cc12 [Example 4-63, 4-(aminomethyl)-6-(5-(pyridin-2-yloxy)pyridin-3-yl)phthalazin-1(2H)-one]	58	1380
NCc1n[nH]c(=O)c2ccc(-c3cncc(Oc4ncccn4)c3)cc12 [Example 4-64, 4-(aminomethyl)-6-(5-(pyrimidin-2-yloxy)pyridin-3-yl)phthalazin-1(2H)-one]	230	4110
NCc1n[nH]c(=O)c2ccc(-c3cncc(Oc4cccc(F)c4)c3)cc12 [Example 4-65, 4-(aminomethyl)-6-(5-(3-fluorophenoxy)pyridin-3-yl)phthalazin-1(2H)-one]	16	517
COc1cccc(Oc2cncc(-c3ccc4c(=O)[nH]nc(CN)c4c3)c2)c1 [Example 4-68, 4-(aminomethyl)-6-(5-(3-methoxyphenoxy)pyridin-3-yl)phthalazin-1(2H)-one]	10	243

Second part, the molecule after the results:

IC50 [1] [nM]	IC50 [2] [nM]	SMILES
10	624	N#Cc1cccc(Oc2cncc(-c3ccc4c(=O)[nH]nc(CN)c4c3)c2)c1 [Example 4-69, 3-((5-(4-(aminomethyl)-1-oxo-1,2-dihydrophthalazin-6-yl)pyridin-3-yl)oxy)benzonitrile]
10	221	NCc1n[nH]c(=O)c2ccc(-c3cncc(Oc4ccccc4F)c3)cc12 [Example 4-70, 4-(aminomethyl)-6-(5-(2-fluorophenoxy)pyridin-3-yl)phthalazin-1(2H)-one]
3	73	Cc1ccccc1Oc1cncc(-c2ccc3c(=O)[nH]nc(CN)c3c2)c1 [Example 4-72, 4-(aminomethyl)-6-(5-(o-tolyloxy)pyridin-3-yl)phthalazin-1(2H)-one]
1.1	76	Cc1ccc(Oc2cncc(-c3ccc4c(=O)[nH]nc(CN)c4c3)c2)cc1Cl [Example 4-74, 4-(aminomethyl)-6-(5-(3-chloro-4-methylphenoxy)pyridin-3-yl)phthalazin-1(2H)-one]
0.7	33	Cc1c(Cl)cccc1Oc1cncc(-c2ccc3c(=O)[nH]nc(CN)c3c2)c1 [Example 4-75, 4-(aminomethyl)-6-(5-(3-chloro-2-methylphenoxy)pyridin-3-yl)phthalazin-1(2H)-one]
1.3	31	Cc1ccc(Oc2cncc(-c3ccc4c(=O)[nH]nc(CN)c4c3)c2)c(C)c1Cl [Example 4-76, 4-(aminomethyl)-6-(5-(3-chloro-2,4-dimethylphenoxy)pyridin-3-yl)phthalazin-1(2H)-one]
1.1	96	COc1ccc(Oc2cncc(-c3ccc4c(=O)[nH]nc(CN)c4c3)c2)cc1 [Example 4-77, 4-(aminomethyl)-6-(5-(4-methoxyphenoxy)pyridin-3-yl)phthalazin-1(2H)-one]
0.5	66	COc1ccccc1Oc1cncc(-c2ccc3c(=O)[nH]nc(CN)c3c2)c1 [Example 4-78, 4-(aminomethyl)-6-(5-(2-methoxyphenoxy)pyridin-3-yl)phthalazin-1(2H)-one]
27	930	NCc1n[nH]c(=O)c2ccc(-c3cnn4c3CN(Cc3ccccc3)CC4)cc12 [Example 4-79, 4-(aminomethyl)-6-(5-benzyl-4,5,6,7-tetrahydropyrazolo[1,5-a]pyrazin-3-yl)phthalazin-1(2H)-one]
58	1570	CCN1CCn2ncc(-c3ccc4c(=O)[nH]nc(CN)c4c3)c2C1 [Example 4-80, 4-(aminomethyl)-6-(5-ethyl-4,5,6,7-tetrahydropyrazolo[1,5-a]pyrazin-3-yl)phthalazin-1(2H)-one]
18	826	CC(C)N1CCn2ncc(-c3ccc4c(=O)[nH]nc(CN)c4c3)c2C1 [Example 4-81, 4-(aminomethyl)-6-(5-isopropyl-4,5,6,7-tetrahydropyrazolo[1,5-a]pyrazin-3-yl)phthalazin-1(2H)-one]
28	1340	NCc1n[nH]c(=O)c2ccc(-c3cnn4c3CN(C3CC3)CC4)cc12 [Example 4-82, 4-(aminomethyl)-6-(5-cyclopropyl-4,5,6,7 tetrahydropyrazolo[1,5-a]pyrazin-3-yl)phthalazin-1(2H)-one]
93	4040	CC(=O)N1CCn2ncc(-c3ccc4c(=O)[nH]nc(CN)c4c3)c2C1 [Example 4-84, 6-(5-acetyl-4,5,6,7-tetrahydropyrazolo[1,5-a]pyrazin-3-yl)-4-(aminomethyl)phthalazin-1(2H)-one]
29	1910	NCc1n[nH]c(=O)c2ccc(-c3cnn4c3CN(C(=O)C3CC3)CC4)cc12 [Example 4-85, 4-(aminomethyl)-6-(5-(cyclopropanecarbonyl)-4,5,6,7-tetrahydropyrazolo[1,5-a]pyrazin-3-yl)phthalazin-1(2H)-one]
11	731	NCc1n[nH]c(=O)c2ccc(-c3cnn4c3CN(C(=O)C3CCC3)CC4)cc12 [Example 4-86, 4-(aminomethyl)-6-(5-(cyclobutanecarbonyl)-4,5,6,7-tetrahydropyrazolo[1,5-a]pyrazin-3-yl)phthalazin-1(2H)-one]
22	1590	NCc1n[nH]c(=O)c2ccc(-c3cnn4c3CN(C(=O)C3CCCC3)CC4)cc12 [Example 4-87, 4-(aminomethyl)-6-(5-(cyclopentanecarbonyl)-4,5,6,7-tetrahydropyrazolo[1,5-a]pyrazin-3-yl)phthalazin-1(2H)-one]
45	1710	NCc1n[nH]c(=O)c2ccc(-c3cnn4c3CN(C(=O)C3CCCCC3)CC4)cc12 [Example 4-88, 4-(aminomethyl)-6-(5-(cyclohexanecarbonyl)-4,5,6,7-tetrahydropyrazolo[1,5-a]pyrazin-3-yl)phthalazin-1(2H)-one]
64	1220	NCc1n[nH]c(=O)c2ccc(-c3cnn4c3CN(C(=O)C35CC(C3)C5)CC4)cc12 [Example 4-89, 4-(aminomethyl)-6-(5-(bicyclo[1.1.1]pentane-1-carbonyl)-4,5,6,7-tetrahydropyrazolo[1,5-a]pyrazin-3-yl)phthalazin-1(2H)-one]
82	2730	NCc1n[nH]c(=O)c2ccc(-c3cnn4c3CN(C(=O)c3ccccc3)CC4)cc12 [Example 4-90, 4-(aminomethyl)-6-(5-benzoyl-4,5,6,7-tetrahydropyrazolo[1,5-a]pyrazin-3-yl)phthalazin-1(2H)-one]
16	249	Cn1ncc(-c2ccc3c(=O)[nH]nc(CN)c3c2)c1-c1cccc(F)c1 [Example 4-91, 4-(aminomethyl)-6-(5-(3-fluorophenyl)-1-methyl-1H-pyrazol-4-yl)phthalazin-1(2H)-one]
